According to patent US6998129B2, “Cosmetic or dermatological composition comprising an association between an elastase inhibitor compound of the N-acylaminoamide family and at least one anti-inflammatory compound” (L'Oreal, priority 2001, dated 2006):

Columns and labels:
[1] = tested on: surviving human skins treated by a human leukocyte elastase (ELH); assay: ex vivo protection of elastic fibres in human skin fragments kept surviving 10 days with ELH (Example 5); assay type: cell-based; conditions: 0.5 μg ELH per ml; 5 μl of 0.2% solution in ethanol every two days; 10 days at 37° C.; three donors; control 7.4%, ELH alone 5.1%
Procedure: (§1) The ex vivo activity of example 2 compound has been evaluated on surviving human skins treated by a human leukocyte elastase (ELH).
(§2) The test is performed the following way.
Fragments of normal human skin from three different donors are deposited in inserts positioned in culture wells. Culture medium added with antibiotics is added in the bottom of the wells. A pass is performed through slow diffusion between the two compartments via a porous membrane (pore size: 12 μm).
(§3) The culture medium is renewed every three days.
On the skin fragments, optionally 0.5 μg ELH per ml culture medium are added.
5 μl of the compound to be tested are also added every two days, previously put in solution at 0.2% by weight in ethanol.
The skins are kept surviving for 10 days at 37° C.
The elastic fibres are colored in blue using catechin (+) and quantified morphometrically using a computer assisted image analysis, The average derma surface percentage occupied by elastic fibres is evaluated this way.

[2] = target: T1, human leukocyte elastase (ELH) (Homo sapiens, UniProt P08246); assay: in vitro anti-elastasic activity on Me-OSAAPV-p-NA substrate; assay type: biochemical; conditions: even in a small amount
T1 sequence (P08246 30-267): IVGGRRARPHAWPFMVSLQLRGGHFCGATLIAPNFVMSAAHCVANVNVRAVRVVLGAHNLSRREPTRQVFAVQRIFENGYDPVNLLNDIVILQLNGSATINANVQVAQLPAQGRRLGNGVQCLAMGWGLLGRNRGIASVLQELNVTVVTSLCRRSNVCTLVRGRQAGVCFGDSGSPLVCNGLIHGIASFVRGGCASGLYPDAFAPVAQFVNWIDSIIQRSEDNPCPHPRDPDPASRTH
Procedure: The anti-elastasic activity of compounds according to the invention is determined in vitro compared to the human leukocyte elastase (ELH).
The test is performed in the following way:
A Me-OSAAPV-p-NA (methyl-O-succinate alanine alanine proline valine-p-nitroaniline) substrate, onto which ELH (40 milli-units per ml) and 0.1% of the compound to be tested are applied, is left for incubating at 37° C. for 60 minutes.
Thereafter, the % inhibition of the control elastase activity is determined by spectrophotometry.

[3] = tested on: surviving human skins irradiated by UVA (8 J/cm^2); assay: protection of elastic fibres and collagen in surviving human skins irradiated by UVA (Example 6); assay type: cell-based; conditions: UVA 8 J/cm^2 once, 5 μl of 0.2% solution every two days, 7 days at 37° C.
Procedure: The activity of the example 2 compound has been evaluated on surviving human skins irradiated by UVA (8 J/cm^2).
as §2
Fragments of normal human skin from four different donors are deposited in inserts positioned in culture wells. Culture medium added with antibiotics is added in the bottom of the wells. A pass is performed through slow diffusion between the two compartments via a porous membrane (pore size: 12 μm).
as §3
On the skin fragments, every two days, 5 μl of the compound to be tested are added, previously put in solution at 0.2% wt in ethanol.
The skins are kept surviving for 7 days at 37° C.
The skins are radiated once at 8 J/cm^2 (RMX-3W Vilbert-Lourmat lamp).
The elastic fibres are colored in blue using catechin (+) and quantified morphometrically using a computer assisted image analysis. The average derma surface percentage occupied by elastic fibres is evaluated this way.

[4] = tested on: surviving human skins treated by a human leukocyte elastase (ELH); assay: ex vivo protection of elastic fibres in fresh human skin cuts treated with ELH for 2 hours (Example 4); assay type: cell-based; conditions: 20° C.
Procedure: as §1, §2
Fresh human skin cuts from two different donors are treated for 2 hours, at 20° C., by 20 μl of a buffer solution (pH 7.4) optionally comprising 10 μg/ml ELH and optionally 0.1% of the compound to be tested, optionally previously put in solution in ethanol.
The elastic fibres are colored in blue using catechin (+) and quantified morphometrically using a computer assisted image analysis. The average derma surface percentage occupied by elastic fibres Is evaluated this way.

CC(=O)N(c1cccc(C(F)(F)F)c1)C(C(=O)NCC(=O)O)C(C)C (stereo not drawn) [Example 2, {2-[acetyl-(3-trifluoromethyl-phenyl)-amino]-3-méthyl-butyrylamino}acetic acid]
% Surface occupied by elastic fibres [1]: 7.1% | inhibition of the elastase activity (in words) [2]: strong inhibition | Elastic fibres morphometric analysis (superficial derma) ([3]; untreated 6.75%, UVA alone 3.9%): 6.8% | Collagen morphometric analysis (superficial derma) ([3]; untreated 87%, UVA alone 81%): 92% | % Surface occupied by elastic fibres ([4]; Skin 1, 10 μg/ml ELH + 0.1% compound, control 12.7%, ELH alone 4.85%): 13.95% | % Surface occupied by elastic fibres ([4]; Skin 2, 10 μg/ml ELH + 0.1% compound, control 15.25%, ELH alone 6.85%): 11.85%
